Columns and labels:
[1] = biological target: WalR (Bacillus anthracis, UniProt A0A2P0HLU7)
[2] = biological target: WalKc(PH) (Bacillus anthracis, UniProt A0A6H3AEB6)
[3] = biological target: WalKc(H) (Bacillus anthracis, UniProt A0A6H3AEB6)
[4] = biological target: WalKc (Bacillus anthracis, UniProt A0A6H3AEB6)
WalKc, sequence (A0A6H3AEB6 210-613 limits assumed): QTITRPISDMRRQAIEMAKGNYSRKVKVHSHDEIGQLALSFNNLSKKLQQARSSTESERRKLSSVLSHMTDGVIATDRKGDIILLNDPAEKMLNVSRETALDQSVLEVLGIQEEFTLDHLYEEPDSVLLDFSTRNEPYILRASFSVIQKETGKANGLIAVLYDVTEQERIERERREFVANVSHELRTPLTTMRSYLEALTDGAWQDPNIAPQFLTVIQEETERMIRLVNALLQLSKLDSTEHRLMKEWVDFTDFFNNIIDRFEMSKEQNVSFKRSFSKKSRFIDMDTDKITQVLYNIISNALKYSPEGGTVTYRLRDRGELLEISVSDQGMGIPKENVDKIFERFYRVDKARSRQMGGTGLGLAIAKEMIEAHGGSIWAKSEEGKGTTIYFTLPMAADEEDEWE

WalKc(PH), sequence (A0A6H3AEB6 263-613 limits assumed): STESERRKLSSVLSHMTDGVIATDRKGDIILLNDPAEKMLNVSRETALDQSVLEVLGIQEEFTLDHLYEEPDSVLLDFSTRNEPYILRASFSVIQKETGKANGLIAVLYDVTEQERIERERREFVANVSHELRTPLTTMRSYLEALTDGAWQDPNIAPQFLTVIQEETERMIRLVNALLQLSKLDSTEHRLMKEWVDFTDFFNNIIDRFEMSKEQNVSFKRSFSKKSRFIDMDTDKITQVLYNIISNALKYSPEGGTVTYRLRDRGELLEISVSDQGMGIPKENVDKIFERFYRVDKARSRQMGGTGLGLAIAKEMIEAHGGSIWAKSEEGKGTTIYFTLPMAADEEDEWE
WalR, sequence (A0A2P0HLU7 1-235): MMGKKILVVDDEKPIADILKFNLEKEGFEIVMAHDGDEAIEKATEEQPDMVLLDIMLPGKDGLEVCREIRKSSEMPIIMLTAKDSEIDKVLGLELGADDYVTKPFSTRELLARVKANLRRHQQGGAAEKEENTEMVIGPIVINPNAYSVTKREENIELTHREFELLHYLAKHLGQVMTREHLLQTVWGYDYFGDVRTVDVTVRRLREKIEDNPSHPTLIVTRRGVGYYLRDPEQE
WalKc(H), sequence (A0A6H3AEB6 380-613 limits assumed): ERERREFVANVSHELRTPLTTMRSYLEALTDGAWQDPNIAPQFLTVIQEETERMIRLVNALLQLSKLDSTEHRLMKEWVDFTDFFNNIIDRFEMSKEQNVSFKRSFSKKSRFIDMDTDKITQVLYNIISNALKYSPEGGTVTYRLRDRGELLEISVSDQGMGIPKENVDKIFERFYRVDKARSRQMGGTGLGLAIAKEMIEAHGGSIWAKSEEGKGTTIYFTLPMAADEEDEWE

SMILES: NC(=O)OP(=O)(O)O [carbamoyl phosphate]
- phosphorylation of WalR, native PAGE with coomassie staining [1]: Carbamoyl phosphate mediated phosphorylation of WalR was also found to be inefficient

SMILES: Nc1ncnc2c1ncn2[C@@H]1O[C@H](COP(=O)(O)OP(=O)(O)OP(=O)(O)O)[C@@H](O)[C@H]1O [ATP]
- autophosphorylation, 32P SDS-PAGE autoradiography [2]: Both, WalKc(PH) and WalKc(H), appeared to be more efficient than WalKc in autophosphorylation
- autophosphorylation, 32P SDS-PAGE autoradiography [3]: Both, WalKc(PH) and WalKc(H), appeared to be more efficient than WalKc in autophosphorylation
- autophosphorylation, 32P SDS-PAGE autoradiography [4]: When WalKc was incubated with labeled ATP mixture, autophosphorylation could be detected

Source: paper PMC3907690 (FEBS Open Bio, 2014)
